Structures can show the parent of a compound that is named as a salt.
Molecular target: human GPR40 (Homo sapiens, UniProt O14842)
Experiment: FDSS-based intracellular calcium assay (Human GRP40 in vitro assay)
Type: cell-based
Parameters: 3xFLAG; expressed in transfected cells
Settings: cells expressing GPR40, intracellular Ca2+ response, FDSS reader; read-out: hGPR40 EC50
Procedure: To conduct the fluorescent imaging plate reader (FLIPR)-based calcium flux assay to measure intracellular Ca^2+ response, cells expressing GPR40 are plated on 384 well plates (BD BIOCOAT® #356697) at a density of 20,000 cells/20 μL medium per well in phenol red and serum-free DMEM (GIBCO® #21063-029) and incubated overnight. Using BD kit #s 80500-310 or -301, the cells are incubated with 20 μL per well of Hank's buffered salt solution with 1.7 mM probenecid and Fluo-3 at 37° C. for 30 min. Compounds are dissolved in DMSO and diluted to desired concentrations with assay buffer and added to the cells as 3× solution (20 μL per well). Run fluorescence/luminescence reader FDSS (Hamamatsu) to read intracellular Ca^2+ response.

Sequence of human GPR40 (O14842 whole entry): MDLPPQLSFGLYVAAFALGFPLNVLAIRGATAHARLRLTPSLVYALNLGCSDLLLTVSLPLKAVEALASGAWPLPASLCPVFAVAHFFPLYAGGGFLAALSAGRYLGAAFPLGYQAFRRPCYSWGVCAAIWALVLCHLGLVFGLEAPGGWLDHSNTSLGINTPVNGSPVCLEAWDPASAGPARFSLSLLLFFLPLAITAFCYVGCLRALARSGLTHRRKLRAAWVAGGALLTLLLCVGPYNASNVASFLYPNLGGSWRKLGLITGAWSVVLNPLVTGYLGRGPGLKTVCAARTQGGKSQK

Compound	EC50 [nM]
COc1ccc(F)c(N2CCC(Oc3ccc(N4C[C@H](F)C[C@@H]4CC(=O)O)cc3)C(C)C2)c1 (stereo partly drawn) [Example 25, 2-((2S,4R)-4-Fluoro-1-(4-((1-(2-fluoro-5-methoxyphenyl)-3-methylpiperidin-4-yl)oxy)phenyl)pyrrolidin-2-yl)acetic acid, TFA]	77
CCc1cc(F)c(N2CCC(Oc3ccc(N4C[C@H](OC)C[C@@H]4CC(=O)O)cc3)CC2)cc1OC [Example 29, 2-((2R,4R)-1-(4-((1-(4-Ethyl-2-fluoro-5-methoxyphenyl)piperidin-4-yl)oxy)phenyl)-4-methoxypyrrolidin-2-yl)acetic acid, TFA]	1100
COc1cc(N2CCC(Oc3ccc(N4C[C@H](OC)C[C@@H]4CC(=O)O)cc3)CC2)c(F)cc1CC(C)C [Example 30, 2-((2R,4R)-1-(4-((1-(2-Fluoro-4-isobutyl-5-methoxyphenyl)piperidin-4-yl)oxy)phenyl)-4-methoxypyrrolidin-2-yl)acetic acid, TFA]	840
CCc1c(OC)ccc(F)c1N1CCC(Oc2ccc(N3C[C@H](OC)C[C@@H]3CC(=O)O)cc2)CC1 [Example 31, 2-((2R,4R)-1-(4-((1-(2-Ethyl-6-fluoro-3-methoxyphenyl)piperidin-4-yl)oxy)phenyl)-4-methoxypyrrolidin-2-yl)acetic acid, TFA]	1100
COc1ccc(F)c(N2CCC(Oc3ccc(N4C[C@H](OC)C[C@@H]4CC(=O)O)cc3)CC2)c1Cc1ccccc1 [Example 32, 2-((2R,4R)-1-(4-((1-(2-Benzyl-6-fluoro-3-methoxyphenyl)piperidin-4-yl)oxy)phenyl)-4-methoxypyrrolidin-2-yl)acetic acid, TFA]	1700
COc1ccc(F)c(N2CCC(N(C)c3ccc(N4C[C@H](OC)C[C@@H]4CC(=O)O)cn3)CC2)c1 [Example 37, 2-((2R,4R)-1-(6-((1-(2-Fluoro-5-methoxyphenyl)piperidin-4-yl)(methyl)amino)pyridin-3-yl)-4-methoxypyrrolidin-2-yl)acetic acid, HCl]	3200
CCOc1ccc(F)c(N2CCC(Oc3ccc(N4C[C@H](c5ccccc5)C[C@@H]4CC(=O)O)cc3)C(C)C2)c1 (stereo partly drawn) [Example 41, 2-((2R,4S)-1-(4-(((3,4-trans)-1-(5-Ethoxy-2-fluorophenyl)-3-methylpiperidin-4-yl)oxy)phenyl)-4-phenylpyrrolidin-2-yl)acetic acid, HCl]	230
CCOc1ccc(F)c(N2[C@H](C)C[C@H](Oc3ccc(N4C[C@H](C(F)(F)F)C[C@@H]4CC(=O)O)cc3)C[C@@H]2C)c1 [Example 42, 2-((2R,4R)-1-(4-(((2R,4R,6S)-1-(5-Ethoxy-2-fluorophenyl)-2,6-dimethylpiperidin-4-yl)oxy)phenyl)-4-(trifluoromethyl)pyrrolidin-2-yl)acetic acid, HCl]	240
CCOc1ccc(F)c(N2CCC(Oc3ccc(N4C[C@H](n5cnnn5)C[C@@H]4CC(=O)O)cc3)CC2)c1 [Example 45, 2-((2R,4R)-1-(4-((1-(5-Ethoxy-2-fluorophenyl)piperidin-4-yl)oxy)phenyl)-4-(1H-tetrazol-1-yl)pyrrolidin-2-yl)acetic acid, HCl]	1900
CCOc1ccc(F)c(N2CCC(Oc3ccc(N4C[C@@H](OCc5ccccc5)C[C@@H]4CC(=O)O)cc3)CC2)c1 [Example 46, 2-((2R,4S)-4-(Benzyloxy)-1-(4-((1-(5-ethoxy-2-fluorophenyl)piperidin-4-yl)oxy)phenyl)pyrrolidin-2-yl)acetic acid, HCl]	650
COc1ccc(F)c(N2CCC(Oc3ccc(N4C[C@H](C(F)(F)F)C[C@@H]4CC(=O)O)cn3)CC2)c1 [Example 49, 2-((2R,4R)-1-(6-((1-(2-Fluoro-5-methoxyphenyl)piperidin-4-yl)oxy)pyridin-3-yl)-4-(trifluoromethyl)pyrrolidin-2-yl)acetic acid]	280
COc1ccc(F)c(N2CCC(Oc3ccc(N4C[C@H](C(F)(F)F)C[C@H]4CC(=O)O)cn3)CC2)c1 [Example 50, 2-((2S,4R)-1-(6-((1-(2-Fluoro-5-methoxyphenyl)piperidin-4-yl)oxy)pyridin-3-yl)-4-(trifluoromethyl)pyrrolidin-2-yl)acetic acid]	1500
COc1ccc(F)c(N2C[C@@H](C)[C@H](Oc3ccc(N4C[C@H](OC)C[C@@H]4CC(=O)O)cc3)[C@@H](C)C2)c1 [Example 55, 2-((2R,4R)-1-(4-(((3S,4R,5R)-1-(2-Fluoro-5-methoxyphenyl)-3,5-dimethylpiperidin-4-yl)oxy)phenyl)-4-methoxypyrrolidin-2-yl)acetic acid, HCl]	980
COc1ccc(F)c(N2C[C@@H](C)[C@@H](Oc3ccc(N4C[C@H](OC)C[C@@H]4CC(=O)O)cc3)[C@@H](C)C2)c1 [Example 56, 2-((2R,4R)-1-(4-(((3S,4S,5R)-1-(2-Fluoro-5-methoxyphenyl)-3,5-dimethylpiperidin-4-yl)oxy)phenyl)-4-methoxypyrrolidin-2-yl)acetic acid, HCl]	2500
COc1ccc(Br)c(N2CCC(Oc3ccc(N4C[C@H](OC)C[C@@H]4CC(=O)O)cc3)CC2)c1 [Example 58, 2-((2R,4R)-1-(4-(1-(2-Bromo-5-methoxyphenyl)piperidin-4-yloxy)phenyl)-4-methoxypyrrolidin-2-yl)acetic acid, TFA]	140
COc1ccc(C(C)C)c(N2CCC(Oc3ccc(N4C[C@H](OC)C[C@@H]4CC(=O)O)cc3)CC2)c1 [Example 60, 2-((2R,4R)-1-(4-(1-(2-Isopropyl-5-methoxyphenyl)piperidin-4-yloxy)phenyl)-4-methoxypyrrolidin-2-yl)acetic acid, TFA]	190
CO[C@@H]1C[C@H](CC(=O)O)N(c2ccc(OC3CCN(c4cc(OC(F)(F)F)ccc4F)CC3)cc2)C1 [Example 63, 2-((2R,4R)-1-(4-(1-(2-Fluoro-5-(trifluoromethoxy)phenyl)piperidin-4-yloxy)phenyl)-4-methoxypyrrolidin-2-yl)acetic acid, TFA]	2600
CCOc1ccc(F)c(N2CCC(Oc3ccc(N4C[C@H](Oc5ccccc5C#N)C[C@@H]4CC(=O)O)cc3)CC2)c1 [Example 66, 2-((2R,4R)-4-(2-Cyanophenoxy)-1-(4-(1-(5-ethoxy-2-fluorophenyl)piperidin-4-yloxy)phenyl)pyrrolidin-2-yl)acetic acid]	1400
CCOc1ccc(F)c(N2CCC(Oc3ccc(N4C[C@H](Oc5ccccc5C)C[C@@H]4CC(=O)O)cc3)CC2)c1 [Example 67, 2-((2R,4R)-1-(4-(1-(5-Ethoxy-2-fluorophenyl)piperidin-4-yloxy)phenyl)-4-(o-tolyloxy)pyrrolidin-2-yl)acetic acid]	950
CCOc1ccc(F)c(N2CCC(Oc3ccc(N4C[C@H](Oc5cccc(C#N)c5)C[C@@H]4CC(=O)O)cc3)CC2)c1 [Example 68, 2-((2R,4R)-4-(3-Cyanophenoxy)-1-(4-(1-(5-ethoxy-2-fluorophenyl)piperidin-4-yloxy)phenyl)pyrrolidin-2-yl)acetic acid]	310
CCOc1ccc(F)c(N2CCC(Oc3ccc(N4C[C@H](Oc5cccc(Cl)c5)C[C@@H]4CC(=O)O)cc3)CC2)c1 [Example 69, 2-((2R,4R)-4-(3-Chlorophenoxy)-1-(4-(1-(5-ethoxy-2-fluorophenyl)piperidin-4-yloxy)phenyl)pyrrolidin-2-yl)acetic acid]	160
